Test results published in patent US20120029187A1, “HALOALKYLSULFONANILIDE DERIVATIVE” (Nissan Chemical Industries, Ltd., priority 2009, published 2012).

What was measured:
Type in all cases: in vivo
barnyardgrass [1] = assay: Test Example 1: herbicidal effects in preemergence treatment under submerged conditions; conditions: dose 2.52 g/a
Method in brief: (§1)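 Weed seeds and 2.5-leaf rice seedlings shared each flooded cup of alluvial soil. Dosing, expressed as g per are, was by pouring water-diluted emulsifiable concentrate onto the surface on sowing day. Mortality was graded 0 to 5 after three weeks' growth.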

bulrush [2] = assay: as above; conditions: dose 2.52 g/a
Method in brief: as §1

ducksalad [3] = assay: as above; conditions: dose 2.52 g/a
Method in brief: as §1

transplanted rice = assay: Test Example 1: preemergence treatment under submerged conditions, effect on crop; conditions: dose 2.52 g/a
Method in brief: as §1

barnyardgrass [4] = assay: Test Example 2: herbicidal effects during the vegetation period under submerged conditions; conditions: treatment during the vegetation period under submerged conditions; dose 2.52 g/a
Method in brief: (§2)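 Barnyardgrass, bulrush and ducksalad were co-sown in alluvial soil flooded to 4 cm and grown in a greenhouse at 25 to 30° C. At the 1- or 2-leaf stage, water-diluted emulsifiable concentrates went onto the water surface at set doses (g/a). Herbicidal effect was scored three weeks later on a graded scale.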

bulrush [5] = assay: as above; conditions: treatment during the vegetation period under submerged conditions; dose 2.52 g/a
Method in brief: as §2

ducksalad [6] = assay: as above; conditions: treatment during the vegetation period under submerged conditions; dose 2.52 g/a
Method in brief: as §2

Italian ryegrass [7] = assay: Test Example 3: herbicidal effects in soil treatment; conditions: dose 3.2 g/a
Method in brief: (§3)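 Seeds were sown in sterilized diluvial soil and covered with about 1.5 cm of soil. Compounds, formulated as emulsifiable concentrates and diluted with water, were sprayed evenly over the soil surface at set doses in g/a. Herbicidal effect was scored on a rating scale three weeks later.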

barnyardgrass [8] = assay: as above; conditions: dose 3.2 g/a
Method in brief: as §3

common chickweed [9] = assay: as above; conditions: dose 3.2 g/a
Method in brief: as §3

common lambsquater [10] = assay: as above; conditions: dose 3.2 g/a
Method in brief: as §3

common ragweed [11] = assay: as above; conditions: dose 3.2 g/a
Method in brief: as §3

giant foxtail [12] = assay: as above; conditions: dose 3.2 g/a
Method in brief: as §3

large crabgrass [13] = assay: as above; conditions: dose 3.2 g/a
Method in brief: as §3

posumbu knotweed [14] = assay: as above; conditions: dose 3.2 g/a
Method in brief: as §3

redroot pigweed [15] = assay: as above; conditions: dose 3.2 g/a
Method in brief: as §3

velvetleaf [16] = assay: as above; conditions: dose 3.2 g/a
Method in brief: as §3

water foxtail [17] = assay: as above; conditions: dose 3.2 g/a
Method in brief: as §3

Italian ryegrass [18] = assay: Test Example 4: herbicidal effect in foliage treatment; conditions: dose 3.2 g/a, three weeks after application
Method in brief: (§4)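 Weeds and crops sown in sterilized diluvial soil under ~1.5 cm cover and grown in greenhouse at 25 to 30° C. At 14 days, water-diluted emulsifiable concentrate sprayed onto foliage at set doses (g/a); herbicidal effect scored on a rating scale three weeks after application.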

barnyardgrass [19] = assay: as above; conditions: dose 3.2 g/a, three weeks after application
Method in brief: as §4

beadstraw = assay: as above; conditions: dose 3.2 g/a, three weeks after application
Method in brief: as §4

common chickweed [20] = assay: as above; conditions: dose 3.2 g/a, three weeks after application
Method in brief: as §4

common lambsquater [21] = assay: as above; conditions: dose 3.2 g/a, three weeks after application
Method in brief: as §4

common ragweed [22] = assay: as above; conditions: dose 3.2 g/a, three weeks after application
Method in brief: as §4

giant foxtail [23] = assay: as above; conditions: dose 3.2 g/a, three weeks after application
Method in brief: as §4

large crabgrass [24] = assay: as above; conditions: dose 3.2 g/a, three weeks after application
Method in brief: as §4

posumbu knotweed [25] = assay: as above; conditions: dose 3.2 g/a, three weeks after application
Method in brief: as §4

redroot pigweed [26] = assay: as above; conditions: dose 3.2 g/a, three weeks after application
Method in brief: as §4

velvetleaf [27] = assay: as above; conditions: dose 3.2 g/a, three weeks after application
Method in brief: as §4

water foxtail [28] = assay: as above; conditions: dose 3.2 g/a, three weeks after application
Method in brief: as §4

Row | Compound | A: barnyardgrass, herbicidal effect (evaluation scale 0-5) (barnyardgrass [1]) | B: bulrush, herbicidal effect (evaluation scale 0-5) (bulrush [2]) | C: ducksalad, herbicidal effect (evaluation scale 0-5) (ducksalad [3]) | a: transplanted rice, effect on crop (evaluation scale 0-5) (transplanted rice) | A: barnyardgrass, herbicidal effect (evaluation scale 0-5) (barnyardgrass [4]) | B: bulrush, herbicidal effect (evaluation scale 0-5) (bulrush [5]) | C: ducksalad, herbicidal effect (evaluation scale 0-5) (ducksalad [6]) | H: Italian ryegrass, herbicidal effect (evaluation scale 0-5) (Italian ryegrass [7]) | A: barnyardgrass, herbicidal effect (evaluation scale 0-5) (barnyardgrass [8]) | N: common chickweed, herbicidal effect (evaluation scale 0-5) (common chickweed [9]) | L: common lambsquater, herbicidal effect (evaluation scale 0-5) (common lambsquater [10]) | J: common ragweed, herbicidal effect (evaluation scale 0-5) (common ragweed [11]) | E: giant foxtail, herbicidal effect (evaluation scale 0-5) (giant foxtail [12]) | D: large crabgrass, herbicidal effect (evaluation scale 0-5) (large crabgrass [13]) | M: posumbu knotweed, herbicidal effect (evaluation scale 0-5) (posumbu knotweed [14]) | K: redroot pigweed, herbicidal effect (evaluation scale 0-5) (redroot pigweed [15]) | I: velvetleaf, herbicidal effect (evaluation scale 0-5) (velvetleaf [16]) | G: water foxtail, herbicidal effect (evaluation scale 0-5) (water foxtail [17]) | H: Italian ryegrass, herbicidal effect (Italian ryegrass [18]) | A: barnyardgrass, herbicidal effect (barnyardgrass [19]) | further results
1 | CCOC(=O)N(c1ccccc1CN1COC(C)(CC(F)(F)F)CC1=O)S(=O)(=O)C(F)(F)F (stereo not drawn) [II-53] | 5 (mortality of 90% or above (nearly complete death)) | 5 (mortality of 90% or above (nearly complete death)) | 5 (mortality of 90% or above (nearly complete death)) | 0 (mortality of less than 5% (almost ineffective)) | 5 (mortality of 90% or above (nearly complete death)) | 5 (mortality of 90% or above (nearly complete death)) | 5 (mortality of 90% or above (nearly complete death)) | 3 (mortality of at least 40% and less than 70%) | 5 (mortality of 90% or above (nearly complete death)) | 5 (mortality of 90% or above (nearly complete death)) | 0 (mortality of less than 5% (almost ineffective)) | 4 (mortality of at least 70% and less than 90%) | 5 (mortality of 90% or above (nearly complete death)) | 5 (mortality of 90% or above (nearly complete death)) | 5 (mortality of 90% or above (nearly complete death)) | 0 (mortality of less than 5% (almost ineffective)) | 5 (mortality of 90% or above (nearly complete death)) | 5 (mortality of 90% or above (nearly complete death)) | 4 (mortality of at least 70% and less than 90%) | 4 (mortality of at least 70% and less than 90%) | O: beadstraw, herbicidal effect (beadstraw): 5 (mortality of 90% or above (nearly complete death)); N: common chickweed, herbicidal effect (common chickweed [20]): 5 (mortality of 90% or above (nearly complete death)); L: common lambsquater, herbicidal effect (common lambsquater [21]): 2 (mortality of at least 20% and less than 40%); J: common ragweed, herbicidal effect (common ragweed [22]): 3 (mortality of at least 40% and less than 70%); E: giant foxtail, herbicidal effect (giant foxtail [23]): 3 (mortality of at least 40% and less than 70%); D: large crabgrass, herbicidal effect (large crabgrass [24]): 3 (mortality of at least 40% and less than 70%); M: posumbu knotweed, herbicidal effect (posumbu knotweed [25]): 4 (mortality of at least 70% and less than 90%); K: redroot pigweed, herbicidal effect (redroot pigweed [26]): 0 (mortality of less than 5% (almost ineffective)); I: velvetleaf, herbicidal effect (velvetleaf [27]): 4 (mortality of at least 70% and less than 90%); G: water foxtail, herbicidal effect (water foxtail [28]): 5 (mortality of 90% or above (nearly complete death))
2 | COCC1(C)CC(=O)N(Cc2ccccc2NS(=O)(=O)C(F)(F)F)CO1 (stereo not drawn) [II-54] | 5 (mortality of 90% or above (nearly complete death)) | 5 (mortality of 90% or above (nearly complete death)) | 5 (mortality of 90% or above (nearly complete death)) | 0 (mortality of less than 5% (almost ineffective)) | 5 (mortality of 90% or above (nearly complete death)) | 5 (mortality of 90% or above (nearly complete death)) | 5 (mortality of 90% or above (nearly complete death)) | 5 (mortality of 90% or above (nearly complete death)) | 5 (mortality of 90% or above (nearly complete death)) | 5 (mortality of 90% or above (nearly complete death)) | 3 (mortality of at least 40% and less than 70%) | 4 (mortality of at least 70% and less than 90%) | 5 (mortality of 90% or above (nearly complete death)) | 5 (mortality of 90% or above (nearly complete death)) | 5 (mortality of 90% or above (nearly complete death)) | 3 (mortality of at least 40% and less than 70%) | 5 (mortality of 90% or above (nearly complete death)) | 5 (mortality of 90% or above (nearly complete death)) | 5 (mortality of 90% or above (nearly complete death)) | 5 (mortality of 90% or above (nearly complete death)) | O: beadstraw, herbicidal effect (beadstraw): 4 (mortality of at least 70% and less than 90%); N: common chickweed, herbicidal effect (common chickweed [20]): 4 (mortality of at least 70% and less than 90%); L: common lambsquater, herbicidal effect (common lambsquater [21]): 2 (mortality of at least 20% and less than 40%); J: common ragweed, herbicidal effect (common ragweed [22]): 4 (mortality of at least 70% and less than 90%); E: giant foxtail, herbicidal effect (giant foxtail [23]): 5 (mortality of 90% or above (nearly complete death)); D: large crabgrass, herbicidal effect (large crabgrass [24]): 4 (mortality of at least 70% and less than 90%); M: posumbu knotweed, herbicidal effect (posumbu knotweed [25]): 2 (mortality of at least 20% and less than 40%); K: redroot pigweed, herbicidal effect (redroot pigweed [26]): 1 (mortality of at least 5% and less than 20%); I: velvetleaf, herbicidal effect (velvetleaf [27]): 5 (mortality of 90% or above (nearly complete death)); G: water foxtail, herbicidal effect (water foxtail [28]): 5 (mortality of 90% or above (nearly complete death))
